From PMC12154284, “FYCO1 Peptide Analogs: Design and Characterization of Autophagy Inhibitors as Co-Adjuvants in Taxane Chemotherapy of Prostate Cancer” (International Journal of Molecular Sciences, 2025)
Entries after “also recorded” stand apart in the source; their conditions may differ.

How the values were obtained:
PC cells = details: with Doc, cited from earlier work
Source text: (§1) Many studies have analyzed the nature of autophagy activated by Doc in PC and the impact of autophagy inhibitors on cell proliferation. The results obtained using 3-Methyladenine (3-MA) in association with Doc were contradictory. […] A more convincing result was obtained using the autophagy inhibitor CQ which enhanced the action ...

PC-3 cells [1] = details: with Doc; ref [45]; cited from earlier work
Source text: as §1

[2] = biological target: human recombinant His-tagged LC3B (Homo sapiens, UniProt Q9GZQ8); assay: MST binding to human recombinant His-tagged LC3B; details: Table S1
Description: To measure the dissociation constants (Kd) of the peptides on human recombinant His-tagged LC3B protein, MST experiments were carried out on a Monolith NT.115^Pico instrument (see the Materials and Methods section for details).
A constant concentration of red-labelled LC3B (10 nM) was incubated with sixteen 1:1 serial dilutions of peptides (concentration details are consultable in the Supplementary Materials, Table S1). PBS-T (phosphate-buffered saline + 0.05% Tween™ 20), from NanoTemper Technologies, with 2.5% dimethyl sulfoxide (DMSO) (Product No. D8418; Sigma-Aldrich, Saint Louis, MO, USA) was used as buffer. After 15 min of incubation at room temperature, samples were loaded into standard capillaries (Product No. MO-K022; NanoTemper Technologies) and analyzed at 25 °C with 20% excitation power and medium MST power (40%) using the “Binding Affinity” mode available in the MO.Control v1.6 software (NanoTemper Technologies GmbH, München, Germany). Prior to Kd determination, peptide auto-fluorescence was assessed. Data analysis was performed using MO.Affinity Analysis v2.3 software (NanoTemper Technologies GmbH, München, Germany) applying the Kd model for fitting the binding curve, while the figures were generated using GraphPad Prism v8.0.2 software (GraphPad, Boston, MA, USA).
Two independent experiments were performed to determine the Kd value.
RA = Response Amplitude; SNR = Signal -to-Noise Ratio.

[3] = Peptide aggregation in MST capillaries; format: physicochemical
Description: This technique enables the determination of the dissociation constant (Kd) across a concentration range spanning from 1 picomolar (pM) to the millimolar (mM) level. The experimental conditions mirrored those in our previously published work. […] A constant concentration of red-labelled LC3B (10 nM) was incubated with sixteen 1:1 serial dilutions of peptides (concentration details are consultable in the Supplementary Materials, Table S1). PBS-T (phosphate-buffered saline + 0.05% Tween™ 20), from NanoTemper Technologies, with 2.5% dimethyl sulfoxide (DMSO) (Product No. D8418; Sigma-Aldrich, Saint Louis, MO, USA) was used as buffer. After 15 min of incubation at room temperature, samples were loaded into standard capillaries (Product No. MO-K022; NanoTemper Technologies) and analyzed at 25 °C with 20% excitation power and medium MST power (40%) using the “Binding Affinity” mode available in the MO.Control v1.6 software (NanoTemper Technologies GmbH, München, Germany). Prior to Kd determination, peptide auto-fluorescence was assessed. […] The “Capillary Scan” graphs, showing the fluorescence homogeneity in the capillaries of all biophysically tested peptides, are provided in the Supplementary Materials, Figure S5.

PC-3 cells [4] = assay: MTT cell viability, PC-3; format: cell-based, Human
Description: The study was conducted on several cancer cells. Human CRPC cell lines (PC-3 and DU145) were purchased from the American Type Culture Collection (ATCC, Manassas, VA, USA) and cultured at 37 °C and 5% CO2 in RPMI 1640 (EuroClone, Milano, Italy) supplemented, respectively, with 7.5% (PC3) and 5% (DU145) FBS (Gibco, ThermoFisher Scientific, Waltham, MA, USA), 1% L-glutamine, and antibiotics (100 IU/mL penicillin G). Luminal A MCF-7 breast cancer cells (ATCC, Manassas, VA, USA) were cultured in Dulbecco’s Modified Eagle Medium/Nutrient Mixture F-12 (DMEM-F12, Gibco Laboratories, Waltham, MA, USA) supplemented with 10% fetal bovine serum (FBS, Gibco Laboratories, Waltham, MA, USA), 1% penicillin/streptomycin (Gibco Laboratories), and 1% L-glutamine (Gibco Laboratories). A549 human lung cancer cell line (ATCC, Manassas, VA, USA) were cultured in Dulbecco’s modified eagle medium (DMEM, Lonza, Switzerland) supplemented with 10% FBS (Gibco Laboratories, Waltham, MA, USA), 1% of 100 u/mL penicillin/streptomycin (Gibco Laboratories), and 1% L-glutamine (Gibco Laboratories). […]
(§2) For viability studies, MTS (Cell Titer 96 Aqueous One Solution Cell Proliferation Assay) (Promega, Nacka, Sweden) and 3-(4,5-dimethylthiazole-2-yl)-2,5-diphenyltetrazolium bromide (MTT) (Sigma-Aldrich, St. Louis, MO, USA) assays were conducted. […] The absorbance (λ = 550 nm) was measured by an EnSpire Multimode Plate reader (Perkin Elmer, Milano, Italy). The absorbance value of untreated cells was set at 100% (control), and the viability of treated cells was expressed as a percentage of the control. […] After 72 h, cell viability was assessed using an MTS assay according to the manufacturer’s protocol using a 96-well-plate spectrophotometer (Varioskan Flash Multimode Reader; ThermoFisher Scientific, Waltham, MA, USA) set at λ = 490 nm. The absorbance value of untreated cells was set at 100% (control), and the viability of treated cells was expressed as a percentage of the control. […]

DU145 cells = assay: MTT cell viability, DU145 (ATG5-deficient); format: cell-based, Human; details: 72 h, dose printed 5 mM, n = 6
Description: (§3) The study was conducted on several cancer cells. Human CRPC cell lines (PC-3 and DU145) were purchased from the American Type Culture Collection (ATCC, Manassas, VA, USA) and cultured at 37 °C and 5% CO2 in RPMI 1640 (EuroClone, Milano, Italy) supplemented, respectively, with 7.5% (PC3) and 5% (DU145) FBS (Gibco, ThermoFisher Scientific, Waltham, MA, USA), 1% L-glutamine, and antibiotics (100 IU/mL penicillin G). […]
as §2

[5] = system: LC3-I and LC3-II in PC-3 cells; assay: Western blot of LC3-I and LC3-II in PC-3 cells; format: cell-based, Human; details: for LC3-I / LC3-II expression, Doc/AM10 experiment: AM10, Doc (25 nM) or both
Description: (§4) PC-3 cells were plated at 2 × 10^5 cells/dish in 6 cm dishes and treated with different compounds. At the end of the treatments the cells were lysed in RIPA buffer. Protein extracts (15–35 μg) were resuspended in presence of reducing Sample buffer (Bio-Rad Laboratories, Segrate, Milano, Italy), heated at 95 °C for 5 min and separated by SDS-PAGE WB. Proteins were transferred onto nitrocellulose or PVDF membranes. After blocking with nonfat dried milk, membranes were incubated with anti-ATG5 (1:1000) (#12994) Cell Signaling Technology Inc. (Boston, MA, USA), anti-LC3 (1:1000) (L8918) (Sigma-Aldrich), anti-SQSTM1/p62 (1:2000) (PA5-20839) (Thermo Fisher Scientific, Waltham, MA, USA), anti-cleaved-caspase-3 (1:500) (#9664) Cell Signaling Technology Inc. primary antibodies overnight at 4 °C. Horseradish peroxidase (HRP) conjugated secondary anti-rabbit or anti-mouse antibodies were used for 1 h at room temperature and the membranes were processed using chemiluminescence kit Cyanagen Ultra (Cyanagen, Bologna, Italy). In each WB experiment alpha-tubulin expression (T6199) (Sigma-Aldrich, St. Louis, MO, USA) was evaluated as a protein control. Relative optical density of the bands was assessed by ImageJ software (version 1.54g). Uncropped WB images are available in the Supporting Information.

p62 in PC-3 cells = assay: Western blot of p62 (SQSTM1) in PC-3 cells; format: cell-based, Human; details: 72 h and 96 h
Description: as §4

[6] = system: cleaved caspase-3 in PC-3 cells; assay: Western blot of cleaved caspase-3 in PC-3 cells; format: cell-based, Human; details: AM10, Doc (25 nM) or both, 48 h
Description: as §4

MCF-7 cells = assay: MTS cell viability, MCF-7; format: cell-based; details: 72 h, 0.0025 to 5 μM, n = 4
Description: as §3, §2

A549 cells = assay: MTS cell viability, A549; format: cell-based, human; details: 72 h, 0.0025 to 5 μM, n = 4
Description: as §3, §2

A375 cells = assay: MTS cell viability, A375; format: cell-based; details: 72 h, 0.0025 to 5 μM, n = 4
Description: as §3, §2

autophagy in PC-3 cells = assay: Autophagosome formation and autophagic flux in PC-3 cells (LC3-I, LC3-II, p62); format: cell-based, Human; details: as evidenced by LC3-I
Description: as §4

autophagic response = details: CRPC therapy; ref [39]; cited from earlier work
Source text: An important problem of tumor is represented by therapy resistance. In fact, in prostate cancer, numerous studies have investigated the implications of autophagy in resistance to hormonal therapies or chemotherapeutic agents. […] Docetaxel (Doc), a chemotherapeutic drug which inhibits microtubule depolymerization, represents the first-line treatment for metastatic CRPC. The treatment is effective in the early stages, but over time its efficacy is drastic ...

[7] = system: breast and colon cancer cells; details: ref [32]; cited from earlier work
Source text: The growing applications of bromine and iodine substituents in anticancer treatment lend ...

LC3B (Homo sapiens) = LC3B (Homo sapiens) (UniProt Q9GZQ8); details: cited from earlier work

## Cn1cnc(N)c2ncnc1-2 [3-MA, 3-Methyladenine]
PC cells; ref [43],[47],[48]
  effect on chemotherapy efficacy: decreased the chemotherapy efficacy
PC cells; ref [46] Hu and collaborators
  effect on cytotoxic action of Doc: enhanced the cytotoxic action of Doc
PC-3 cells [1]
  effect on cytotoxicity of Doc in PC-3 cells: does not modify the cytotoxicity of Doc in PC-3 cells

## CC[C@H](C)[C@H](NC(=O)[C@H](CC(=O)O)NC(=O)[C@H](Cc1ccc(I)cc1)NC(=O)[C@@H](NC(=O)[C@H](C)NC(=O)[C@@H](N)CC(=O)O)C(C)C)C(=O)N[C@H](C(=O)N[C@H](C(=O)N[C@@H](CC(=O)O)C(=O)N[C@@H](CCC(=O)O)C(=O)N[C@@H](CCC(=O)O)C(=O)N[C@@H](CC(C)C)C(=O)O)[C@@H](C)O)[C@@H](C)CC [AM2]
[2]
  Response Amplitude (RA): 7.8

## CC[C@H](C)[C@H](NC(=O)[C@H](CC(=O)O)NC(=O)[C@H](Cc1ccccc1)NC(=O)[C@@H](NC(=O)[C@H](C)NC(=O)[C@@H](N)CC(=O)O)C(C)C)C(=O)N[C@H](C(=O)N[C@H](C(=O)N[C@H]1CSCc2ccc(cc2)CSC[C@@H](C(=O)O)NC(=O)[C@H](CCC(=O)O)NC(=O)[C@H](CCC(=O)O)NC1=O)[C@@H](C)O)[C@@H](C)CC [AM7]
[2]
  Response Amplitude (RA): 3.7
[3]; 125, 62.5 and 31.25 µM, MST capillary scan, PBS-T + 2.5% DMSO
  aggregation at highest concentrations, in words: the three highest concentration points (125, 62.5, and 31.25 µM) were discarded due to aggregation; also recorded: the three highest concentrations (125, 62.5, and 31.25 µM) were excluded from analysis due to aggregation phenomena
[3]; MST buffer PBS-T + 2.5% DMSO, 25 °C
  concentration at which aggregation is displayed: ≥ 31.25 µM

## CC[C@H](C)[C@H](NC(=O)[C@H](CC(=O)O)NC(=O)[C@H](Cc1ccc(I)cc1)NC(=O)[C@@H](NC(=O)[C@H](C)NC(=O)[C@@H](N)CC(=O)O)C(C)C)C(=O)N[C@@H](CCSC)C(=O)N[C@H](C(=O)N[C@H]1CSSC[C@@H](C(=O)O)NC(=O)[C@H](CCC(=O)O)NC(=O)[C@H](CCC(=O)O)NC1=O)[C@@H](C)O [AM10]
[2]
  Response Amplitude (RA): 2.8
PC-3 cells [4]; MTT, 72 h, 0.0025-5 μM (method), n = 6
  PC-3 cell viability: all peptides reduce cell viability in a significant dose-dependent manner starting from the 0.025 mM dose up to the 5 mM dose
PC-3 cells [4]; summary statement
  PC-3 cell viability (Conclusions): diminished cell viability
DU145 cells
  DU145 cell viability: no effect on cell viability
[5]; 5 µM, 48 h
  LC3-I and LC3-II expression, 48 h: significantly reduced the level of LC3-I and LC3-II
[5]; 72 h
  LC3-I and LC3-II expression, 72 h: retains the ability to inhibit both LC3-I and LC3-II
[5]; 48 h
  LC3-I / LC3-II expression, Doc/AM10 experiment: reduces the expression of both LC3-I and LC3-II
p62 in PC-3 cells
  p62 expression: the expression of p62 increases significantly
[6]
  cleaved caspase-3 / apoptosis: does not induce caspase-3 activation
MCF-7 cells
  MCF-7 cell viability: concentration-dependent reduction in cell viability
A549 cells
  A549 cell viability: concentration-dependent reduction in cell viability
A375 cells
  A375 cell viability: concentration-dependent reduction in cell viability
Autophagy in PC-3 cells
  autophagosome formation and autophagic flux (Conclusions): inhibited autophagosome formation and autophagic flux

## C[C@]12CC[C@H](O)CC1=CC[C@@H]1[C@@H]2CC[C@]2(C)C(c3cccnc3)=CC[C@@H]12 [Abiraterone]
Autophagic response
  autophagic response: activate an autophagic response that reduces their effectiveness

## CCN(CC)CCCC(C)Nc1ccnc2cc(Cl)ccc12 (stereo not shown) [CQ, Chloroquine]
PC cells; ref [49]
  effect on the action of Doc: enhanced the action of Doc by reducing resistance to chemotherapy

## CC(=O)O[C@@]12CO[C@@H]1C[C@H](O)[C@@]1(C)C(=O)[C@H](O)C3=C(C)[C@@H](OC(=O)[C@H](O)[C@@H](NC(=O)OC(C)(C)C)c4ccccc4)C[C@@](O)([C@@H](OC(=O)c4ccccc4)[C@H]21)C3(C)C [Doc, Docetaxel, reference compound]
PC-3 cells [4]; MTT, 48 h, 1-100 nM
  PC-3 cell viability, Docetaxel: significant reduction in cell viability at concentrations of 10 nM, 25 nM, 50 nM, and 100 nM, with a dose-dependent effect
[5]; 48 h
  LC3-I / LC3-II expression, Doc/AM10 experiment: significant increase in LC3-II expression
[6]
  cleaved caspase-3 / apoptosis: trigger apoptotic cell death by activating the executor caspase-3

## CNC(=O)c1ccc(N2C(=S)N(c3ccc(C#N)c(C(F)(F)F)c3)C(=O)C2(C)C)cc1F [Enzalutamide]
Autophagic response
  autophagic response: activate an autophagic response that reduces their effectiveness

## Cc1ccc(S(=O)(=O)[N-]Br)cc1.[Na+] [bromamine T]
[7]
  cytotoxic effects against breast and colon cancer cells: strong cytotoxic effects against breast and colon cancer cells

## FYCO1-LIR peptide
LC3B (Homo sapiens)
  Kd: 3.1 µM
